Experimental data reported in patent publication US9650395B2, “Antibacterial compounds and methods for use” (PTC Therapeutics, Inc., priority 2011, dated 2017).
Values after ≈ are worked out from the molar mass of the structure shown. Counter-ions that a name gives are not always drawn. Like-named read-outs stand apart in the source and are kept apart here.

What was measured:
[1] = system: super sensitive Gram-negative Escherichia coli (E. coli) BAS849; assay: Antibacterial activity, microbroth dilution MIC, E. coli BAS849; type: cell-based; settings: Escherichia coli, read-out: MIC, BAS849
[2] = system: control Gram-negative E. coli 25922 strain; assay: Antibacterial activity, microbroth dilution MIC, E. coli 25922; type: cell-based, Escherichia coli; settings: Escherichia coli; E. coli 25922, microbroth dilution; read-out: MIC, 25922
[3] = system: Gram-positive Staphylococcus aureus (S. aureus) 29213; assay: Antibacterial activity, microbroth dilution MIC, S. aureus 29213; type: cell-based; settings: Staphylococcus aureus; S. aureus 29213, microbroth dilution; read-out: MIC, 29213
[4] = system: quinolone resistant E. coli LZ3111; assay: Antibacterial activity, MIC, quinolone resistant E. coli LZ3111; type: cell-based, Escherichia coli; settings: Escherichia coli, read-out: MIC, LZ3111
Excerpt: The antibacterial activity from a microbroth dilution method may be presented as the minimum inhibitory concentration (MIC in […]). The MIC value is the lowest concentration of a drug which prevents macroscopically visible bacterial growth under test conditions.
Mutations in these regions are known to confer a high level resistance to the quinolone class of antibiotics.

[5] = E. coli BAS849, microbroth dilution

| Compound | MIC [1] [µg/mL] | MIC [2] [µg/mL] | MIC [3] [µg/mL] | MIC [4] [µg/mL] | MIC [1, 5] [µg/mL] |
| --- | --- | --- | --- | --- | --- |
| CCc1cc(C(=O)O)c(=O)[nH]c1-c1ccc(N2C[C@H]3C[C@@H](NC)C[C@H]3C2)cc1 [Cpd 215, 5-ethyl-6-{4-[(3aR,5r,6aS)-5-(methylamino)hexahydrocyclopenta[c]pyrrol-2(1H)-yl]phenyl}-2-oxo-1,2-dihydropyridine-3-carboxylic acid trifluoroacetate] | 1 to 3.5 | 3.5 to 12.5 | 12.5 to 150 | 12.5 to 150 | – |
| CCc1c(-c2ccc(N3C[C@H]4C[C@@H](NCc5ccccc5)C[C@H]4C3)cc2)[nH]c(=O)c(C(=O)O)c1O [Cpd 250, 6-{4-[(3aR,5r,6aS)-5-(benzylamino)hexahydrocyclopenta[c]pyrrol-2(1H)-yl]phenyl}-5-ethyl-4-hydroxy-2-oxo-1,2-dihydropyridine-3-carboxylic acid] | – | 12.5 to 150 (≈ 26.4 to 317 µM) | 12.5 to 150 (≈ 26.4 to 317 µM) | 12.5 to 150 (≈ 26.4 to 317 µM) | 3.5 to 12.5 (≈ 7.39 to 26.4 µM) |
| CCc1cc(C(=O)O)c(=O)[nH]c1-c1ccc(N2C[C@H]3CNC[C@H]3C2)cc1.Cl [Cpd 207, 5-ethyl-6-{4-[(3aR,6aS)-hexahydropyrrolo[3,4-c]pyrrol-2(1H)-yl]phenyl}-2-oxo-1,2-dihydropyridine-3-carboxylic acid hydrochloride] | – | 12.5 to 150 | 12.5 to 150 | 12.5 to 150 | 3.5 to 12.5 |
| CCc1cc(C(=O)O)c(=O)[nH]c1-c1ccc(N2CC3CC3(N)C2)cc1.Cl (centres unmarked) [Cpd 169, 6-[4-(1-amino-3-azabicyclo[3.1.0]hex-3-yl)phenyl]-5-ethyl-2-oxo-1,2-dihydropyridine-3-carboxylic acid hydrochloride] | – | 1 to 3.5 | 12.5 to 150 | 12.5 to 150 | < 1 |
| CCc1cc(C(=O)O)c(=O)[nH]c1-c1ccc(N2CCC(CNCc3cccc(F)c3)C2)cc1 (centres unmarked) [Cpd 238, 5-ethyl-6-[4-(3-{[(3-fluorobenzyl)amino]methyl}pyrrolidin-1-yl)phenyl]-2-oxo-1,2-dihydropyridine-3-carboxylic acid] | – | 1 to 3.5 (≈ 2.22 to 7.79 µM) | 12.5 to 150 (≈ 27.8 to 334 µM) | 12.5 to 150 (≈ 27.8 to 334 µM) | < 1 |
| CCc1cc(C(=O)O)c(=O)[nH]c1-c1ccc(N2CC[C@H](O)C2=O)cc1 [Cpd 117, 5-ethyl-6-{4-[(3S)-3-hydroxy-2-oxopyrrolidin-1-yl]phenyl}-2-oxo-1,2-dihydropyridine-3-carboxylic acid] | – | 12.5 to 150 (≈ 36.5 to 438 µM) | 12.5 to 150 (≈ 36.5 to 438 µM) | 12.5 to 150 (≈ 36.5 to 438 µM) | 12.5 to 150 (≈ 36.5 to 438 µM) |
| CCc1cc(C(=O)O)c(=O)[nH]c1-c1ccc(N2C[C@H]3CCN[C@H]3C2)cc1.O=C(O)C(F)(F)F [Cpd 190, 5-ethyl-6-{4-[(3aR,6aR)-hexahydropyrrolo[3,4-b]pyrrol-5(1H)-yl]phenyl}-2-oxo-1,2-dihydropyridine-3-carboxylic acid trifluoroacetate] | 1 to 3.5 | 12.5 to 150 | 12.5 to 150 | 12.5 to 150 | – |
| CCc1c(-c2ccc(OC)c(OC)c2OC)[nH]c(=O)c(C(=O)O)c1O [Cpd 42, 5-ethyl-4-hydroxy-2-oxo-6-(2,3,4-trimethoxyphenyl)-1,2-dihydropyridine-3-carboxylic acid] | – | 12.5 to 150 (≈ 35.8 to 429 µM) | 1 to 3.5 (≈ 2.86 to 10 µM) | 12.5 to 150 (≈ 35.8 to 429 µM) | < 1 |
| CCc1cc(C(=O)O)c(=O)[nH]c1-c1ccc(N2CC3OCCN(Cc4ccccc4)C3C2)cc1.O=C(O)C(F)(F)F (centres unmarked) [Cpd 180, 6-[4-(4-benzylhexahydropyrrolo[3,4-b][1,4]oxazin-6(2H)-yl)phenyl]-5-ethyl-2-oxo-1,2-dihydropyridine-3-carboxylic acid trifluoroacetate] | 1 to 3.5 | 12.5 to 150 | 12.5 to 150 | – | – |
| CCc1c(-c2ccc(N(C)C)c(OC)c2)[nH]c(=O)c(C(=O)O)c1O [Cpd 65, 6-[4-(dimethylamino)-3-methoxyphenyl]-5-ethyl-4-hydroxy-2-oxo-1,2-dihydropyridine-3-carboxylic acid] | – | 12.5 to 150 (≈ 37.6 to 451 µM) | 12.5 to 150 (≈ 37.6 to 451 µM) | – | 3.5 to 12.5 (≈ 10.5 to 37.6 µM) |
| CCc1c(-c2ccc(N3CCCC3)c(OC)c2)[nH]c(=O)c(C(=O)O)c1O [Cpd 67, 5-ethyl-4-hydroxy-6-[3-methoxy-4-(pyrrolidin-1-yl)phenyl]-2-oxo-1,2-dihydropyridine-3-carboxylic acid] | – | 12.5 to 150 (≈ 34.9 to 419 µM) | 1 to 3.5 (≈ 2.79 to 9.77 µM) | – | 3.5 to 12.5 (≈ 9.77 to 34.9 µM) |
| CCc1c(-c2ccc(OC)cc2OC)[nH]c(=O)c(C(=O)O)c1O [Cpd 36, 6-(2,4-dimethoxyphenyl)-5-ethyl-4-hydroxy-2-oxo-1,2-dihydropyridine-3-carboxylic acid] | – | 12.5 to 150 (≈ 39.1 to 470 µM) | 12.5 to 150 (≈ 39.1 to 470 µM) | – | 3.5 to 12.5 (≈ 11 to 39.1 µM) |
| CCc1cc(C(=O)O)c(=O)[nH]c1-c1ccc(N2C[C@@H]3[C@H](C2)[C@H]3N(Cc2ccccc2)Cc2ccccc2)cc1 [Cpd 176, 6-{4-[(1R,5S,6s)-6-(dibenzylamino)-3-azabicyclo[3.1.0]hex-3-yl]phenyl}-5-ethyl-2-oxo-1,2-dihydropyridine-3-carboxylic acid hydrochloride] | – | 12.5 to 150 | 12.5 to 150 | – | 12.5 to 150 |
| CCc1cc(C(=O)O)c(=O)[nH]c1-c1ccc(N(C)C)c(OC)c1 [Cpd 64, 6-[4-(dimethylamino)-3-methoxyphenyl]-5-ethyl-2-oxo-1,2-dihydropyridine-3-carboxylic acid] | – | 12.5 to 150 (≈ 39.5 to 474 µM) | 12.5 to 150 (≈ 39.5 to 474 µM) | – | 3.5 to 12.5 (≈ 11.1 to 39.5 µM) |
